Laboratory results as given in patent publication US20240150841A1, “TAP63 REGULATED ONCOGENIC LONG NON-CODING RNAS” (H. LEE MOFFITT CANCER CENTER AND RESEARCH INSTITUTE, INC., priority 2021, published 2024).
Counter-ions that a name gives are not always drawn.

How the values were obtained:
CA1D cells = assay: Annexin V assay (apoptosis / cell death) time course in CA1D cells; format: cell-based, human
Method: Cells were plated at a density of 1×10^4 cells in 6 replicates in a 96-well plate. Three biological replicates were performed per each assay. To evaluate cell proliferation, the cells were labelled for 3 h with […] EdU (5′-ethynyl-2′-deoxyuridine) and stained using the Click-iT EdU microplate assay (Invitrogen). Apoptosis was monitored by incubating the cells with Annexin V-Alexa Fluor 488 (Essen BioScience) according to the manufacturer's instructions Images were captured and percent of either cell proliferation or apoptosis was quantified using a high-throughput immunofluorescence plate reader and accompanying software (IncuCyte, Essen Bioscience).
To see how effective the administration of an anti-cancer treatment alone or in combination with siRNA targeting TROLL2 and/or TROLL-3 was, CA1D cells were administered treatment and […] of the cells was measured by Annexin V staining. As shown in FIGS. 14A-14F cells with high levels of TROLLs were either limited in response to treatment or resistant.

TROLL-2 = assay: qRT-PCR for TROLL-2 in triple negative breast cancer cells treated with drugs; format: cell-based, human; details: for expression of TROLL-2 following treatment: CA1D, BT-20, BT-549, MDA-MB-231, for at least 48 hours following treatment; for expression of TROLL-2 by the end of the 72 hour course: TNBC cell lines
Method: (§1) Total RNA was prepared using TRIzol reagent (Invitrogen)5. For gene expression analysis, complementary DNA was synthesized from 5 μg of total RNA using the SuperScript II First-Strand Synthesis Kit (Invitrogen) according to the manufacturer's protocol followed by qRT-PCR using the TaqMan® Universal PCR Master Mix (Applied Biosystems). qRT-PCR was performed using a QuantStudio 6 flex PCR machine (Applied Biosystems) and each qRT-PCR was performed in triplicate.
(§2) We wanted to examiner the effects anti-cancer treatments on the level of TROLLs overtime.

TROLL-3 = assay: qRT-PCR for TROLL-3 in triple negative breast cancer cells treated with drugs; format: cell-based, human; details: for expression of TROLL-3 following treatment: CA1D, BT-20, BT-549, MDA-MB-231, for at least 48 hours following treatment; for expression of TROLL-3 by the end of the 72 hour course: TNBC cell lines
Method: as §1, §2

WDR26 (endogenous) = WDR26 (endogenous) (UniProt Q9H7D7)
UniProt Q9H7D7, sequence (Q9H7D7 whole entry): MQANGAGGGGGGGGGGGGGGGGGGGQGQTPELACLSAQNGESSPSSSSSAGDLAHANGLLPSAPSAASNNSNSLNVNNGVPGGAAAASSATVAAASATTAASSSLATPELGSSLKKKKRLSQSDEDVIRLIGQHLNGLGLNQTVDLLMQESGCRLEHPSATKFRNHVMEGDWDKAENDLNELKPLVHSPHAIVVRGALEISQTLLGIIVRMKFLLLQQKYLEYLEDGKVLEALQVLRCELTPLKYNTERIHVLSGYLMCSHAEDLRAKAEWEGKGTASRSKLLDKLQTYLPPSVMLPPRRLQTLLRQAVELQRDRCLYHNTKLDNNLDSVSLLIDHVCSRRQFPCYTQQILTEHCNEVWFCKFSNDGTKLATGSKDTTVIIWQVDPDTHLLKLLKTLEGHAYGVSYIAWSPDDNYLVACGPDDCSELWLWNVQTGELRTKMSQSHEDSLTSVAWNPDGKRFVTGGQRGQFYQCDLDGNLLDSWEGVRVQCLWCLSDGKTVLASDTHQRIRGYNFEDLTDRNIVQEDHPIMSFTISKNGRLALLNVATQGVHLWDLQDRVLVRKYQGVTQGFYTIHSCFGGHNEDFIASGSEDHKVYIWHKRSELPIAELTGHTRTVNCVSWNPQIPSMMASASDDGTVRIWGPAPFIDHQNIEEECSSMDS

Row | Molecule | response to drug in TNBC with high levels of TROLLs (in particular TROLL-2 and TROLL-3) (CA1D cells) | response to drug in TNBC with low levels of TROLLs (in particular TROLL-2 and TROLL-3) (CA1D cells) | expression of TROLL-2 following treatment (TROLL-2) | expression of TROLL-3 following treatment (TROLL-3) | expression of TROLL-2 by the end of the 72 hour course (TROLL-2) | expression of TROLL-3 by the end of the 72 hour course (TROLL-3) | AKT phosphorylation levels (pAKT S473, western blot) (WDR26 (endogenous))
1 | O=P1(N(CCCl)CCCl)NCCCO1 (stereo not shown) [cyclophosphamide] | resistance | partial response | reduced expression | reduced expression | – | – | –
2 | CCCCCOC(=O)Nc1nc(=O)n([C@@H]2O[C@H](C)[C@@H](O)[C@H]2O)cc1F [capecitabine] | resistance | partial response | reduced expression | reduced expression | increased expression | increased expression | –
3 | AKT (endogenous) | – | – | – | – | – | – | a decrease in AKT phosphorylation levels
4 | COc1cccc2c1C(=O)c1c(O)c3c(c(O)c1C2=O)C[C@@](O)(C(=O)CO)C[C@@H]3O[C@H]1C[C@H](N)[C@H](O)[C@H](C)O1 [Adriamycin, Doxorubicin Hydrochloride] | limited response | sensitivity | reduced expression | reduced expression | increased expression | increased expression | –
5 | CC(=O)O[C@@]12CO[C@@H]1C[C@H](O)[C@@]1(C)C(=O)[C@H](O)C3=C(C)[C@@H](OC(=O)[C@H](O)[C@@H](NC(=O)OC(C)(C)C)c4ccccc4)C[C@@](O)([C@@H](OC(=O)c4ccccc4)[C@H]21)C3(C)C [docetaxel] | limited response | sensitivity | reduced expression | reduced expression | – | – | –
6 | N.N.O=C([O-])C1(C(=O)[O-])CCC1.[Pt+2] [carboplatin] | resistance | partial response | reduced expression | reduced expression | increased expression | increased expression | –
7 | CC(=O)O[C@H]1C(=O)[C@@]2(C)[C@H]([C@H](OC(=O)c3ccccc3)[C@]3(O)C[C@H](OC(=O)[C@H](O)[C@@H](NC(=O)c4ccccc4)c4ccccc4)C(C)=C1C3(C)C)[C@]1(OC(C)=O)CO[C@@H]1C[C@@H]2O [paclitaxel] | limited response | sensitivity | reduced expression | reduced expression | – | – | –
